Laboratory results published in patent US6645954B2, “Compositions comprising ethisterone or its derivatives” (Multimed Limited, priority 1998, dated 2003).
Where “and” joins values, the source holds several entries; their conditions need not be identical. Identical values can stand only once.

Key:
[1] = Andropause CheckList score (ACL) and clinical symptom response in hypogonadal men; type: in vivo, human; details: for clinical response / symptoms: Example 2, person, pre-treatment ACL 25, successive treatments
Description: ACL—Andropause CheckList Score—A questionnaire rating the incidence and severity of symptoms of the andropause. The greater the checklist score, the more severe are the symptoms.
These consecutive referrals were evaluated at interview by administering a questionnaire, the “Andropause Check List” which rated each symptom on a five point rating scale as being absent (0), slight (1), moderate (2), severe (3) or total (4). It also included questions on the monthly frequency of intercourse and masturbation. A detailed history was taken focussing especially on factors which might affect testicular function and this was entered onto a computerised database (Microsoft Access).
(§1) During treatment, the severity of symptoms and level of sexual activity on the Andropause Check List score was reassessed at three monthly intervals, as well as weight, blood pressure, resting pulse rate, full endocrine, biochemical and haematological profiles, and in some cases ultrasound studies of the prostate and testes. In all cases, subjects were used as their own controls in the comparison of the effects of treatment. All results were stored in a specially designed Microsoft Access database, and […] analyes were carried out using the SPSS version 9 programme.

dihydrotestosterone = experiment: Dihydrotestosterone (DHT) in fasting blood; type: in vivo, human; details: Clinical trial; treatment alone, without Danazol
From the text: (§2) Fasting blood samples were taken between 9 and 12 am to minimize the effects of diurnal variation, and analyses included the standard full biochemical, lipid and haematology profiles, prostate specific antigen and routine urine analysis. The endocrine assessment included follicle stimulating hormone (FSH) and luteinizing hormone (LH) prolactin, total testosterone (TT), dihydrotestosterone (DHT), sex hormone binding globulin (SHBG), oestradiol (E2) cortisol and either total thyroxine or TSH.

Luteinising Hormone = Luteinising Hormone (LH) in fasting blood; type: in vivo, human
From the text: LH—Luteinising Hormone in IU/l (NR 0.7-6)
as §2

Total Testosterone [2] = experiment: Total Testosterone (TT) in fasting blood; type: in vivo, human
From the text: TT—Total Testosterone in nmol/l (NR 13-35)
as §2

Total Testosterone [3] = details: cited from earlier work
[4] = system: Sex Hormone Binding Globulin; experiment: Sex Hormone Binding Globulin (SHBG) in fasting blood; type: in vivo, human; details: for Sex Hormone Binding Globulin: Clinical trial, FIG. 4, started above the normal range (20-45 nmol/l) in Danazol groups
From the text: SHBG—Sex Hormone Binding Globulin in nmol/l (NR 20-45)
as §2

Free Androgen Index = Free Androgen Index (FAI = TT/SHBG x 100); type: in vivo, human
From the text: It has been found (Carruthers, M. ‘The Male Menopause, Harpercollins’, London, 1996) that the symptoms associated with this condition arise due to an absolute or relative insufficiency of testosterone, particularly the latter, caused by a reduction in the Free Active Testosterone (FAT); that is a lack of testosterone present in an unbound state in blood plasma. Testosterone in vivo can be bound to sex hormone binding globulin (SHBG) and to a lesser extent, albumin. When bound the testosterone is not freely available to the body or bio-available. One of the best measures of this is the ‘Free Androgen Index’ (FAI). This is calculated by dividing the Total Testosterone (TT) by the ‘sex Hormone Binding Globulin’ (SHBG) and multiplying by a hundred to express it as a percentage. In the healthy, asymptomatic male this is normally in the range 70-100%. Symptoms of the andropause regularly appear when this drops below 50%, except in a few cases where the TT is low and the body appears to compensate by reducing SHBG levels to maintain the FAI.
FAI—Free Androgen Index (NR 70-100%)

[5] = Adverse effects / tolerability; details: Example 2
[6] = system: Follicle Stimulating Hormone; experiment: Follicle Stimulating Hormone (FSH) in fasting blood; type: in vivo, human
From the text: FSH—Follicle Stimulating Hormone in IU/l (NR 1-6)
as §2

Oestradiol = Oestradiol (E2) in fasting blood; type: in vivo, human
From the text: as §2

[7] = system: Prostate Specific Antigen; experiment: PSA, biochemistry and haematology profiles during treatment; type: in vivo, human; details: Example 5; D1 alone, 2 years
From the text: PSA—Total Prostate Specific Antigen in ug/l (NR<4.0)
as §2, §1

oestrogen receptors = details: cited from earlier work
[8] = Sexual activity (intercourse per month) reported by subjects; type: in vivo, human; details: Example 5, person; D1 alone, within 3 months; before: once a month
progesterone receptors = target: T1, progesterone receptors (Homo sapiens, UniProt P06401); details: cited from earlier work
T1 sequence (P06401 1-933): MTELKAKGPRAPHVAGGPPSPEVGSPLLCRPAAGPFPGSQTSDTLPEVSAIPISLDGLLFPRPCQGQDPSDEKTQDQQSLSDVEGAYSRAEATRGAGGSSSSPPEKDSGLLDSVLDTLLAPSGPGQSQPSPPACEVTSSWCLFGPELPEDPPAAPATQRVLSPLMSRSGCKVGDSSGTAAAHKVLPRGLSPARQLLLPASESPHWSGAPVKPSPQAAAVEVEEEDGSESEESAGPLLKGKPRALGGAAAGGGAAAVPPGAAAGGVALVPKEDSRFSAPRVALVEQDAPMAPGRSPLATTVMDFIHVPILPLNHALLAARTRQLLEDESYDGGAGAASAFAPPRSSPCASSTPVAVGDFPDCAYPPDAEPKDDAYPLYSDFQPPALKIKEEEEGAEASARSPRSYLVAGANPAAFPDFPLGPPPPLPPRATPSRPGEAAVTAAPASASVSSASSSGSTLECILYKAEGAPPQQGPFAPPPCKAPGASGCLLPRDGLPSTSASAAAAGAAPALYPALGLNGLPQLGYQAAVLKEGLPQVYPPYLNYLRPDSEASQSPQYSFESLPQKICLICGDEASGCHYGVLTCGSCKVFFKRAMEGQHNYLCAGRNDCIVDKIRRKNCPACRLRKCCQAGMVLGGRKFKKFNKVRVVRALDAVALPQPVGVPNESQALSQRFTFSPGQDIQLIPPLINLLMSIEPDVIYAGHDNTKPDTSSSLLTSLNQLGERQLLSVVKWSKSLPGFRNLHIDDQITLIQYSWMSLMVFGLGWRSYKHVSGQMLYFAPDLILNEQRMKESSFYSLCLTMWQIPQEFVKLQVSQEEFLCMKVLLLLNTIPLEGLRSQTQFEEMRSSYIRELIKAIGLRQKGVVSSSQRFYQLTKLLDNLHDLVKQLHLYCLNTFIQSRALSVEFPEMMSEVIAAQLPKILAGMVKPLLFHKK

[9] = Example 1, R3 increased monthly to R4 then R6

C[C@H]1CC(=O)C[C@@H]2CC[C@H]3[C@@H]4CC[C@H](O)[C@@]4(C)CC[C@@H]3[C@]21C [ME, mesterolone]
clinical response / symptoms [1]: poor clinical response | DHT (dihydrotestosterone): trebling

C[C@]12CC[C@H]3[C@@H](CCC4=CC(=O)CC[C@@]43C)[C@@H]1CC[C@@H]2O [TI, testosterone]
LH (Luteinising Hormone; Example 1, TI, a year later): total suppression | TT (Total Testosterone [2]; Example 1, TI, a year later): 35.6 nmol/L | TT (Total Testosterone [2]; Example 3, TI, after 6 months): 30.6 nmol/L | mean testosterone levels (Total Testosterone [3]; previous study, samples taken 3 months after implantation): 45 nmol/L | SHBG ([4]; Example 1, TI, a year later): 74 nmol/L | SHBG ([4]; Example 3, TI alone, successive values during the following 2 years): 82.1 nmol/L and 85 nmol/L and 54 nmol/L and 81 nmol/L | SHBG ([4]; Example 3, TI, after 6 months): 95.3 nmol/L | symptoms ([1]; Example 1, TI, 3 years after starting treatment): symptoms reappeared | erection problems ([1]; Example 1, after change to TI): rapidly improved | clinical response / symptoms [1]: relieved their symptoms | FAI (Free Androgen Index; Example 1, TI, a year later): 48% | FAI (Free Androgen Index; Example 3, TI, after 6 months): 32% | adverse events of implant [5]: became infected on several occasions, with extrusion of pellets | FSH ([6]; Example 1, TI, a year later): total suppression | DHT (dihydrotestosterone): no increase

CCCCCCCCCCC(=O)O[C@H]1CC[C@H]2[C@@H]3CCC4=CC(=O)CC[C@]4(C)[C@H]3CC[C@]12C [Restandol, testosterone undecanoate]
LH (Luteinising Hormone; Example 1, R3 increased monthly to R4 then R6, pre-treatment 6.1): 6.7 IU/l | TT (Total Testosterone [2]; Example 1, R3 increased monthly to R4 then R6, pre-treatment 27.4): 21.4 nmol/L | TT (Total Testosterone [2]; Example 3, person, R6, after 3 months, pre-treatment 20): 22.2 nmol/L | E2 (Oestradiol; [9]): 178 pmol/L | Sex Hormone Binding Globulin [4]: reduction in SHBG levels on its own | SHBG ([4]; Example 1, R3 increased monthly to R4 then R6, Restandol alone, pre-treatment 73): 47 nmol/L | SHBG ([4]; Example 3, R6, after 3 months, pre-treatment 56.7): 112 nmol/L | relief of symptoms ([1]; Example 1, person, R3 increased at monthly intervals to R4 then R6): only partial relief of symptoms | clinical response / symptoms [1]: poor clinical response | clinical results ([1]; Example 6, further reduction of testosterone dosage to the lowest level of R2): excellent | FAI (Free Androgen Index; Example 1, R3 increased monthly to R4 then R6, pre-treatment 38%): 46% | FAI (Free Androgen Index; Example 3, R6, after 3 months, pre-treatment 35): 19.8% | FSH [6, 9]: 8.9 IU/l

C#C[C@]1(O)CC[C@H]2[C@@H]3CCC4=Cc5oncc5C[C@]4(C)[C@H]3CC[C@@]21C [Danazol, [1,2], oxazolo[4,5-b]17alpha-pregna-2,4-dien-20-yn-17beta-ol]
LH (gonadotrophins) (Luteinising Hormone; Clinical trial, FIG. 7, Danazol added to the testosterone treatment): greater reductions | LH (Luteinising Hormone; Example 5, D1 alone, within 3 months, pre-treatment 6.0): 2.9 IU/l | TT (Total Testosterone [2]; Example 5, D1 alone, within 3 months, pre-treatment 50): 48 nmol/L | total plasma testosterone (Total Testosterone [3]; previous uses in women and men at doses of 200 to 600 mg): reduced | E2 (Oestradiol; Example 5, D1 alone, within 3 months, pre-treatment 120): < 44 pmol/L | Sex Hormone Binding Globulin [4]: uniformly ended at the bottom end of it | SHBG ([4]; Example 5, D1 alone, successive values over 2 years, listed as D1): 19 nmol/L and 23 nmol/L and 17 nmol/L | SHBG ([4]; Example 5, D1 alone, within 3 months, pre-treatment 72): 39 nmol/L | effects on PSA, full biochemistry or haematological profile [7]: no adverse effects | total Andropause Check List (ACL) score ([1]; Clinical trial, FIG. 1, Danazol 100 mg alternate mornings or daily added to testosterone treatment, up to six 3-6 monthly visits): fell equally | efficacy of testosterone treatment for hypogonadal men ([1]; Clinical trial, danazol added to three different forms of testosterone treatment, particularly where SHBG raised): greatly increased their efficacy | clinical response ([1]; Example 5, D1 alone, for 2 years): maintained | ACL ([1]; Example 5, D1 alone, within 3 months, pre-treatment ACL 26): 14 | Free Androgen Indices (Free Androgen Index; Clinical trial, FIG. 5, Danazol added to the three testosterone treatments): markedly increased | FAI (Free Androgen Index; Example 5, D1 alone, within 3 months, pre-treatment 69.4): 123% | interaction with oestrogen receptors (oestrogen receptors): does not interact with oestrogen receptors to any significant extent | sexual activity [8]: twice a week | FSH ([6]; Clinical trial, FIG. 6, Danazol added to the testosterone treatment): greater reductions | FSH ([6]; Example 5, D1 alone, within 3 months, pre-treatment 5.9): 4.5 IU/l | affinity for progesterone receptors (progesterone receptors): low affinity
